Measurements taken from paper PMC3530200 (Bioorganic & medicinal chemistry letters, 2012).
Numbered stars: 1 amine (or outer) side, 2 acyl side, 3 side chain; on linkers, the order of the positions; unused ones are H or OH. Square brackets hold non-standard residues; d marks the D form. Peptide text beside a SMILES is read from it. X2 = O=C([C@H](Cc1cn(CCCCCCCCc2ccccc2)c2ccccc12)N[*:1])[*:2]; X1 = O=C([C@H](Cc1cn(CCCCCCCCc2ccccc2)cn1)N[*:1])[*:2]; pT = C[C@@H](OP(=O)(O)O)[C@H](N)C(=O)O

Molecular target: Plk1 PBD (Homo sapiens, UniProt P53350)
Test: ELISA-based Plk1 PBD-binding inhibition assay

Chain of Plk1 PBD (P53350 whole entry): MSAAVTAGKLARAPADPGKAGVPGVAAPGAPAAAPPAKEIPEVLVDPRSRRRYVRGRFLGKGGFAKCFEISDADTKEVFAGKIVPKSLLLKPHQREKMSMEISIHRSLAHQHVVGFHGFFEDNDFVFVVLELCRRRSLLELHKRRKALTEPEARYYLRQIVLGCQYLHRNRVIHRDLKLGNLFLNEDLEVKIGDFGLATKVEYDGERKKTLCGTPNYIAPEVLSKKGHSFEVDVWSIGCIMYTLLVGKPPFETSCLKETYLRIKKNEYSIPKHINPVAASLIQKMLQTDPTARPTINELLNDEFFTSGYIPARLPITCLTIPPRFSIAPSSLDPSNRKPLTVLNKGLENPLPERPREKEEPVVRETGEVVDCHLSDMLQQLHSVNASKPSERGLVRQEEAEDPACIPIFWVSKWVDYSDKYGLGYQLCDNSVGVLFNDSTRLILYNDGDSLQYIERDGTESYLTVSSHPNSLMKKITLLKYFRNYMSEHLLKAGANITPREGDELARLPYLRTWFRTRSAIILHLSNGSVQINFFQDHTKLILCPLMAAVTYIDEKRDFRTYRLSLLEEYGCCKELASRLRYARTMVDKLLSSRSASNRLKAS

## CC(=O)N1CCC[C@H]1C(=O)N[C@@H](CC(C)C)C(=O)N[C@@H](Cc1cn(CCCCCCCCc2ccccc2)cn1)C(=O)N[C@@H](CO)C(=O)N[C@H](C(N)=O)[C@@H](C)OP(=O)(O)O [1c] (Ac-PL[X1]S[pT]-NH2; N-terminus and C-terminus assumed)
Ratio of IC50 relative to 1b
  fold less affinity than 1b: approximately 50 fold

## CC(=O)N1CCC[C@H]1C(=O)N[C@@H](CC(C)C)C(=O)N[C@@H](Cc1cn(CCCCCCCCc2ccccc2)c2ccccc12)C(=O)N[C@@H](CO)C(=O)N[C@H](C(N)=O)[C@@H](C)OP(=O)(O)O [1d] (Ac-PL[X2]S[pT]-NH2; N-terminus and C-terminus assumed)
Ratio of IC50 relative to 1c
  fold less affinity than 1c: approximately 30 fold

## PLHST [reference compound]
Even at the highest concentration tested (300 μM)
  affinity of non-phosphorylated control peptide: negligible affinity
